Results published in patent publication US6479046B2, “Attractants and repellants for colorado potato beetle” (priority 2000, dated 2002).

Test system: Colorado potato beetle (CPB) adults
Assay: open Y-track olfactometer dual choice bioassay, adult beetles
Format: in vivo, Leptinotarsa decemlineata
Settings: not given
Text: Insects: Adult Colorado potato beetles (CPB) were obtained from a laboratory colony which was annually infused with feral insects. CPB were maintained on potato, S. tuberosum cultivar Kennebeck, for both larval and adult stages. Upon emergence, adults were sexed; individual insects were kept in plastic containers with fresh potato foliage and water until use six to 12 days post emergence. Prior to testing, CPB were starved for two to three hours. Experimental insects were used only once.
Odorous blends tested are described in Table 3.
Plant stimuli consisted of 4.8 g of leaves from mature plants that were mechanically-damaged using scissors to make incisions ca. 1 cm in length at ca. 1 cm intervals around the circumference of leaves. Foliage used in the study were, potato, S. tuberosum cultivar Kennebeck (Solanaceae); tomato, Lycopersicon esculentum Mill cultivar Pik Red (Solanaceae); and soybean, Glycines maxcultivar Williams (Leguminaceae).
Experimental protocol: Chemical blends and plant foliage were tested for behavioral activity in an open Y-track olfactometer modified after Visser et al. (Visser, J. H., et al., Proceedings of the Section Experimental and Applied Entomology of the Netherlands Entomological Society Amsterdam, 9: 41-46 (1998); and described in detail by Dickens (Dickens, J. C., Agricultural and Forest Entomology, 1: 47-54 (1999)). In brief, odorous stimuli emanating from synthetic blends on filter paper discs (2.5 cm dia., Whatman™ #1 filter paper) or mechanically-damaged plant foliage in Ehrlenmeyer flasks were delivered to either side of the device. For each blend, a total amount of 25 μl of neat chemicals were diluted in 1 ml of mineral oil (25 μg total chemicals/μl mineral oil). […]
Statistical analysesLaboratory bioassays were assessed for significant differences by the hypothesis on binomial proportions based on the standard normal approximation (Brase, C. H., et al., Understanding Statistics, D. C. Heath and Co., Lexington, Mass., XIV +489 pp. (1983)).

Compound | behavioral response of CPB to treatment versus control (in words)
C=CC(C)(O)CCC=C(C)C (single isomer, unassigned; (+)) [XV, (+)-linalool] | unattractive
CC/C=C\CCOC(C)=O [XIV, (Z)-3-hexenyl acetate] | unattractive
COC(=O)c1ccccc1O [XVI, methyl salicylate] | unattractive

Test system: CPB
Assay: not given
Settings: Schütz et al. (1997); cited from earlier work

Compound | attraction of CPB to leaves sprayed with paraffin solutions (in words)
OCCc1ccccc1 [2-benzene-ethanol] | attractive
CCCCC/C=C\CCO [(Z)-3-nonen-1-ol] | reduced attraction
C=CC(C)(O)CCC=C(C)C (stereo not shown) [linalool] | attractive
CCCCCCCCC=O [nonanal] | reduced attraction
C=C1CC/C=C(\C)CC[C@@H]2[C@@H]1CC2(C)C [β-caryophyllene] | attractive
C=CC(=C)CCC=C(C)C [β-myrcene] | reduced attraction
benzene methanol | attractive
